Measured values reported in patent publication US12103951B2, “Use of CGRP receptor antagonists in neuroprotection and neurological disorders” (priority 2016, dated 2024).
Entries after “also recorded” stand apart in the source; their conditions may differ.

Columns and labels:
optic nerve axons = test: Rat laser glaucoma model: total number of optic nerve axons (stereology); type: in vivo, Wistar rats; details: IP daily for two weeks; for total number of optic nerve axons, lasered vs contralateral control eyes: paired sample t-test, P>0.05
Description: (§1) In this study, Wistar rats (n=12) were used for the experiments. The neuroprotective properties of compounds were investigated in a rat laser model of glaucoma. Rats were divided into two groups of six rats each. One group served as a placebo control receiving vehicle (NaCl) injections, and the other was treated with a peptide CGRP receptor antagonist (SEQ ID NO: 1). For all 12 rats, the contralateral, untreated eye served as a naïve undiseased control. The vehicle control and test compound (20 mg/kg) were administered systemically (IP) daily for the whole follow-up period of two weeks. The animals were sacrificed using transcardial perfusion. The retinal whole-mounts were then immuno-stained against retinal ganglion cell (RGC) marker Brn3a and astrocytic marker GFAP (glial fibrillary acidic protein). The number of Brn3a positive profiles was manually counted from retinal images taken from central and peripheral parts of retina. The total number of GFAP-immunoreactive cells (retinal astrocytes) was estimated using stereology. The total number of RGC axons in the optic nerve was estimated using stereology.
The rat glaucoma model was induced unilaterally by laser photocoagulation of episcleral veins as previously described (Kalesnykas et al., 2007). Anesthesia was performed using sodium pentobarbital (30 mg/kg). […]
2. Quantification of optic nerve axons using stereology. […]
After the optic nerves were post-fixed in 4% PFA (in 0.1M phosphate buffer, pH 7.4) solution, they were placed in 1% osmium, dehydrated in ascending alcohol concentration and placed in 1% uranyl acetate in 100% ethanol for 1 hour (Cone et al., 2012). […] Briefly, axons were counted manually using the Stereo Investigator software (MicroBrightField, VT, USA). […]
Quantitative data was graphed, analyzed and presented as mean±standard deviation (SD) or standard error of mean (SEM). Parametric data was analyzed using paired-samples T-test (the contralateral eye of the same animal serves as control). Non-parametric data was analyzed using Mann-Whitney U test (comparison of 2 groups) or Wilcoxon paired-samples T-test. […]

[1] = tested on: retinal ganglion cell (RGC); test: Rat laser glaucoma model: number of RGCs (Brn3a positive cells) in retinal whole mounts; type: in vivo, Wistar rats
Description: as §1, with “The retinal whole-mounts were then immuno-stained against retinal ganglion cell (RGC) marker Brn3a and astrocytic marker GFAP (glial fibrillary acidic protein).” left out, “The total number of GFAP-immunoreactive cells (retinal astrocytes) was estimated using stereology. The total number of RGC axons in the optic nerve was estimated using stereology.” left out
1. Quantification of Brn3a and GFAP-positive cells from retinal whole mounts manually and using stereology. […]
Retinal whole mounts were immuno-stained against RGC (Brn3a) and astrocytic (GFAP) antibodies and the number of cells was quantified either manually (Brn3a) or as previously described (Kalesnykas et al., 2008).
The retinas were immuno-stained against RGC specific antibody Brn3a, retinas were imaged and Brn3a positive profiles were counted manually using Image J software (NIH, Bethesda, Maryland, USA). […]

Substance: NH2-Ala-Cys-Asp-Thr-Ala-Ala-Cys-Val-Leu-Gly-Arg-Leu-Ser-Gln-Glu-Leu-His-Arg-Leu-Gln-Thr-Tyr-Pro-Arg-Thr-Asn-Val-Gly-Ser-Lys-Ala-Phe-NH2 (H-ACDTAACVLGRLSQELHRLQTYPRTNVGSKAF-NH2; ends and bridges not checked) [SEQ ID NO: 1, peptide CGRP receptor antagonist]
- total number of optic nerve axons, increase vs optic nerves from contralateral control eyes (optic nerve axons; increase): 1.7%
- total number of optic nerve axons, lasered vs contralateral control eyes (optic nerve axons): did not differ significantly; also recorded: smallest decrease in the total number of axons
- total number of optic nerve axons, lasered vs contralateral control eyes (optic nerve axons; listed as CGRP antagonist): slight increase
- number of Brn3a positive cells, increase in lasered eyes vs contralateral control eyes ([1]; IP daily for two weeks, increase, P=0.43): 3.0%
- neuroprotection at cellular and optic nerve axon levels ([1]; rat glaucoma model, systemic administration): showed neuroprotection
